Test results: patent US20210330611A1, “THERAPY FOR NEUROLOGICAL DISEASES/DISORDERS” (priority 2020, published 2021)
Counter-ions that a name gives are not always drawn. Like-named read-outs stand apart in the source and are kept apart here.

How the values were obtained:
[1] = system: fibrin-induced microglia activation; assay: Image-based assay of fibrin-induced microglia activation (HTS and dose response); format: cell-based, rat; settings: for inhibition at 10 µM: Rattus norvegicus, Microglia, read-out: Fibrin % inhibition
[2] = system: LPS-induced microglia activation; assay: Image-based assay of LPS-induced microglia activation (HTS and dose response); format: cell-based, rat; settings: for inhibition at 10 µM: Rattus norvegicus, Microglia, read-out: LPS % inhibition
[3] = system: fibrin- and LPS-induced microglia activation; assay: cells; format: cell-based, rat
[4] = system: primary rat microglia;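 as to Fibrin % cell toxicity: share of dead cells sized under 150 µm2 at 10 µM in fibrin-stimulated microglia HTS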
[5] = system: primary rat microglia; remark: listed apart in the source;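 as to Fibrin % cell toxicity: share of dead cells sized under 150 µm2 at 10 µM in fibrin-stimulated microglia HTS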
[6] = primary microglia HTS, fibrin stimulation, increased cell size (>800 μm^2) as marker of activation
[7] = 48 h, primary microglia HTS, LPS stimulation, increased cell size (>800 μm^2) as marker of activation
[8] = quadrant by fibrin and LPS inhibition in HTS of 1907 compounds
[9] = primary microglia HTS, LPS stimulation, increased cell size (>800 μm^2) as marker of activation

| Structure (SMILES) | inhibition at 10 µM [1, 6] | inhibition at 10 µM [2, 7] | Quadrant (FIG. 5b) [3, 8] | Fibrin % cell toxicity ([4]; rat) | LPS % cell toxicity ([5]; rat) | inhibition at 10 µM ([2]; 48 h) | Quadrant (FIG. 5b) [3] | further results |
| --- | --- | --- | --- | --- | --- | --- | --- | --- |
| COc1c(N2C[C@@H]3CCCN[C@@H]3C2)c(F)cc2c(=O)c(C(=O)O)cn(C3CC3)c12 [Moxifloxacin Hydrochloride] | 7% | 14% | Q4 | 1% | 0% |  |  |  |
| CC1CCc2c(N3CCC(O)CC3)c(F)cc3c(=O)c(C(=O)O)cn1c23 (stereo not shown) [Nadifloxacin] | -14% | 10% | Q4 | 1% | 0% |  |  |  |
| CN(C/C=C/c1ccccc1)Cc1cccc2ccccc12 [Naftifine] |  |  |  | 0% | 0% | 3% | Q4 | inhibition at 10 µM [1]: -12% |
| Oc1ccc2c3c1O[C@H]1[C@@H](O)CC[C@@]4(O)[C@@H](C2)N(CC2CCC2)CC[C@]314 [Nalbuphine Hydrochloride] |  |  |  | 1% | 0% |  | Q4 | Fibrin % inhibition [1]: −11%; LPS % inhibition [2]: 15% |
| Oc1ccc2c3c1O[C@H]1[C@@H](O)CC[C@@]4(O)[C@@H](C2)N(CC2CCC2)CC[C@]314 [Nalbuphine] |  |  |  | 1% | 0% | 16% | Q4 | Fibrin % inhibition [1]: −8% |
| C=CCN1CC[C@]23c4c5ccc(O)c4O[C@H]2C(=O)CC[C@@]3(O)[C@H]1C5 [Naloxone Hydrochloride] |  |  |  | 0% | 0% |  | Q4 | Fibrin % inhibition [1]: −16%; LPS % inhibition [2]: 11% |
| C=CCN1CC[C@]23c4c5ccc(O)c4O[C@H]2C(=O)CC[C@@]3(O)[C@H]1C5 [Naloxone] |  |  |  | 1% | 1% | 21% | Q4 | Fibrin % inhibition [1]: −41% |
| OC(CNCC(O)C1CCc2cc(F)ccc2O1)C1CCc2cc(F)ccc2O1 (stereo not shown) [Nebivolol] | -10% | 6% | Q4 | 1% | 0% |  |  |  |
| Cc1c(O)cccc1C(=O)N[C@@H](CSc1ccccc1)[C@H](O)CN1C[C@H]2CCCC[C@H]2C[C@H]1C(=O)NC(C)(C)C [Nelfinavir] | 16% | 13% | Q4 | 1% | 0% |  |  |  |
| NC[C@@H]1O[C@H](O[C@H]2[C@@H](O)[C@H](O[C@@H]3[C@@H](O)[C@H](N)C[C@H](N)[C@H]3O[C@H]3O[C@H](CN)[C@@H](O)[C@H](O)[C@H]3N)O[C@@H]2CO)[C@H](N)[C@@H](O)[C@@H]1O.O=S(=O)(O)O [Neomycin Sulfate] |  |  | Q4 |  |  |  |  | Fibrin % inhibition [1, 6]: 15%; LPS % inhibition [2, 9]: 18%; Fibrin % cell toxicity [4]: 0%; LPS % cell toxicity [5]: 0% |
| CO[C@]12C[C@@H](COC(=O)c3cncc(Br)c3)CN(C)[C@@H]1Cc1cn(C)c3cccc2c13 [Nicergoline] | 6% | 7% | Q4 | 1% | 0% |  |  |  |
| NC(=O)c1cccnc1 [Nicotinamide] |  |  |  | 1% | 0% | 16% | Q4 | inhibition at 10 µM [1]: -8% |
| CN1CCC[C@H]1c1cccnc1 [Nicotine] |  |  |  | 1% | 1% | 21% | Q4 | inhibition at 10 µM [1]: 2% |
| Cc1cn(-c2cc(NC(=O)c3ccc(C)c(Nc4nccc(-c5cccnc5)n4)c3)cc(C(F)(F)F)c2)cn1 [Nilotinib] | -35% | 17% | Q4 | 1% | 1% |  |  |  |
| COC(=O)C1=C(C)NC(C)=C(C(=O)OCC(C)C)C1c1ccccc1[N+](=O)[O-] (stereo not shown) [Nisoldipine] | 6% | 25% | Q4 | 1% | 1% |  |  |  |
| O=C1CN=C(c2ccccc2)c2cc([N+](=O)[O-])ccc2N1 [Nitrazepam] | -1% | -4% | Q4 | 1% | 0% |  |  |  |
| O=C1CN(/N=C/c2ccc([N+](=O)[O-])o2)C(=O)N1 [Nitrofurantoin] |  |  |  | 1% | 0% | 11% | Q4 | inhibition at 10 µM [1]: -3% |
| CNC(=C[N+](=O)[O-])NCCSCc1csc(CN(C)C)n1 [Nizatidine] | -18% | 14% | Q4 | 0% | 0% |  |  |  |
| CCn1cc(C(=O)O)c(=O)c2cc(F)c(N3CCNCC3)cc21 [Norfloxacin] | 0% | 9% | Q4 | 1% | 0% |  |  |  |
| Cc1cc2c(s1)Nc1ccccc1N=C2N1CCN(C)CC1 [Olanzapine] |  |  |  | 1% | 0% | 9% | Q4 | inhibition at 10 µM [1]: 6% |
| Cc1c(-c2cnccn2)ssc1=S [Oltipraz] |  |  |  | 1% | 0% | -1% | Q4 | inhibition at 10 µM [1]: -2% |
| CC(C)NCC(O)c1cc(O)cc(O)c1 (stereo not shown) [Orciprenaline] | 15% | 25% | Q4 | 0% | 0% |  |  |  |
| O=C(O)c1cc(=O)[nH]c(=O)[nH]1 [Orotic Acid] | -5% | 16% | Q4 | 0% | 0% |  |  |  |
| CCn1cc(C(=O)O)c(=O)c2cc3c(cc21)OCO3 [Oxolinic Acid] | 7% | 13% | Q4 | 0% | 1% |  |  |  |
| CCN(CC)CC#CCOC(=O)C(O)(c1ccccc1)C1CCCCC1 (stereo not shown) [Oxybutynin] |  |  |  | 0% | 1% | 0% | Q4 | inhibition at 10 µM [1]: -9% |
| CCCCC1C(=O)N(c2ccccc2)N(c2ccc(O)cc2)C1=O (stereo not shown) [Oxyphenbutazone] |  |  | Q1 |  |  |  |  | Fibrin % inhibition [1, 6]: 2%; LPS % inhibition [2, 9]: 114%; Fibrin % cell toxicity [4]: 1%; LPS % cell toxicity [5]: 97% |
| Oc1cccc2cccnc12 [Oxyquinoline] |  |  |  | 80% | 57% |  | Q2 | inhibition at 10 µM [1]: 117%; inhibition at 10 µM [2]: 116% |
| CN(C)[C@@H]1C(O)=C(C(N)=O)C(=O)[C@@]2(O)C(O)=C3C(=O)c4c(O)cccc4[C@@](C)(O)[C@H]3[C@H](O)[C@@H]12 [Oxytetracycline] | 0% | 10% | Q4 | 1% | 0% |  |  |  |
| Cc1nc2n(c(=O)c1CCN1CCC(c3noc4cc(F)ccc34)CC1)CCCC2O (stereo not shown) [Paliperidone] | -26% | 9% | Q4 | 1% | 0% |  |  |  |
